# Read-outs that look alike come from different tables or passages of the source.
# Assays:
# mMC3R [1] = target: T1, mMC3R (Mus musculus, UniProt P33033); assay: AlphaScreen cAMP agonist assay, HEK293 cells stably expressing mMC3R
# mMC1R [2] = target: T2, mMC1R (Mus musculus, UniProt Q01727); design: expressed in transfected cells; method as in PMID 33886285; conditions: cited from earlier work
# mMC3R [3] = target: T1, mMC3R; design: expressed in transfected cells; method as in PMID 33886285; conditions: β-galactosidase reporter gene assay; read-out: mMC3R agonist EC50 (previously reported); cited from earlier work
# mMC4R [4] = target: T3, mMC4R (Mus musculus, UniProt P56450); conditions: antagonist, Schild analysis with agonist NDP-MSH; mean ± SEM
# T3 sequence (P56450 whole entry): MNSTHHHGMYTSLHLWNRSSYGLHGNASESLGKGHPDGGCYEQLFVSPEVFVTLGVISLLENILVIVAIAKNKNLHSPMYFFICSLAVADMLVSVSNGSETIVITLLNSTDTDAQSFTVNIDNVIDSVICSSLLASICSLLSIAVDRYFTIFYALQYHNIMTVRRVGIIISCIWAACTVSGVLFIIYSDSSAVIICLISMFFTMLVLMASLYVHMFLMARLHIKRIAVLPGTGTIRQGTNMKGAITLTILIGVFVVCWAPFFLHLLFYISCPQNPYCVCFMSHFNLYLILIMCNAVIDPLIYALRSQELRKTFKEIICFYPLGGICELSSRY
# mMC4R [5] = target: T3, mMC4R; assay: cell-based
# mMC5R [6] = target: T4, mMC5R (Mus musculus, UniProt P41149); assay: AlphaScreen cAMP agonist assay, HEK293 cells stably expressing mMC5R
# T4 sequence (P41149 whole entry): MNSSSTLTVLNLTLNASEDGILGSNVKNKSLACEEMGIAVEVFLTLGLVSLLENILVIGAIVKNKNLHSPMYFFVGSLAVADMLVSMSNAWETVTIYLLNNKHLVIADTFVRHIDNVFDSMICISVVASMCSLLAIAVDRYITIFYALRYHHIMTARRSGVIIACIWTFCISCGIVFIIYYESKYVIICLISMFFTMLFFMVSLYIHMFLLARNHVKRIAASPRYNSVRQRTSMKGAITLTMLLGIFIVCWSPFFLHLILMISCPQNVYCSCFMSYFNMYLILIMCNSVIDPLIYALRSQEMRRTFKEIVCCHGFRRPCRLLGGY
# mMC4R [7] = target: T3, mMC4R; design: expressed in transfected cells; method as in PMID 33886285; conditions: with agonist MTII; cited from earlier work
# mMC5R [8] = target: T4, mMC5R; design: expressed in transfected cells; method as in PMID 33886285; conditions: β-galactosidase reporter gene assay; read-out: mMC5R agonist EC50 (previously reported); cited from earlier work
# mMC4R [9] = target: T3, mMC4R; assay: AlphaScreen cAMP agonist assay, HEK293 cells stably expressing mMC4R; conditions: for mMC4R partial agonist efficacy bin: sigmoidal curve, efficacy <90% of NDP-MSH
# mMC1R [10] = target: T2, mMC1R; assay: AlphaScreen cAMP agonist assay, HEK293 cells stably expressing mMC1R
# mMC4R [11] = target: T3, mMC4R; design: expressed in transfected cells; method as in PMID 33886285; conditions: cited from earlier work
# MC1R = system: MC1R; design: method as in PMID 21215742; conditions: read-out: MC1R antagonist IC50; cited from earlier work
# MC5R = system: MC5R; design: method as in PMID 21215742; conditions: read-out: MC5R antagonist IC50; cited from earlier work
# [12] = target: mouse melanocortin-3 receptor (mouse) (UniProt P33033)
# Chain of mouse melanocortin-3 receptor (mouse) (P33033 whole entry): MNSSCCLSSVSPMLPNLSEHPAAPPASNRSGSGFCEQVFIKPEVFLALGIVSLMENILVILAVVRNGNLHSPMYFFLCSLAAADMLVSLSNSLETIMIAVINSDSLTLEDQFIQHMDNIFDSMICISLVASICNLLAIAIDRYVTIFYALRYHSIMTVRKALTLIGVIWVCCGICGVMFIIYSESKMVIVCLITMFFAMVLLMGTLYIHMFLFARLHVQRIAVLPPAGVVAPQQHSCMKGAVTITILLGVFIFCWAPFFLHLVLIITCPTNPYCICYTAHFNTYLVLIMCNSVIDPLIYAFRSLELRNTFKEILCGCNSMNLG
# [13] = target: mouse melanocortin-5 receptor (mouse) (UniProt P41149)
# Chain of mouse melanocortin-5 receptor (mouse) (P41149 whole entry): as the sequence (P41149 whole entry) above
# [14] = target: mouse melanocortin-1 receptor (mouse) (UniProt Q01727)
# Chain of mouse melanocortin-1 receptor (mouse) (Q01727 whole entry): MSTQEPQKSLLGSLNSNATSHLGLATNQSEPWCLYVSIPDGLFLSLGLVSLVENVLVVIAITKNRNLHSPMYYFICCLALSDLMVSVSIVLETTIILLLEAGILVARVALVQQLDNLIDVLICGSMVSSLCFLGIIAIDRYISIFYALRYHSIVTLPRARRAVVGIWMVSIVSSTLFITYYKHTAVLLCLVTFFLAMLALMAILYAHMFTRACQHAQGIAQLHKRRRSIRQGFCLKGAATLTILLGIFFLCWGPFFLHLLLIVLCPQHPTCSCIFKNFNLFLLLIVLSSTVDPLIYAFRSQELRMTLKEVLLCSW
# T1 sequence (P33033 whole entry): as the sequence (P33033 whole entry) above
# T2 sequence (Q01727 whole entry): as the sequence (Q01727 whole entry) above
EC50 (mMC3R [1]) [nM],mMC4R pA2 (mMC4R [4]),Kb (mMC4R [5]) [nM],EC50 (mMC5R [6]) [nM],EC50 (mMC4R [9]) [nM],mMC4R partial agonist efficacy bin (mMC4R [9]),EC50 (mMC1R [10]) [nM],Compound,EC50 (mMC3R [3]) [nM],mMC4R antagonist pA2 (previously reported) (mMC4R [7]),EC50 (mMC5R [8]) [nM],also measured
2000 ± 300,5.9,1260,1200 ± 200,2500 ± 600,A (A (20–50% receptor activation)),640 ± 30,CCCC1CN(C(CC2CCCCC2)CN2CCCC2CN2C(=N)NCC2C(C)C)C(=N)N1CC1CCC(C(C)(C)C)CC1 (stereo not shown) [Compound 2718.003],350,5.8,540,"fold decreased mMC3R potency between the previous reported values and the present study (mMC3R [1]; AlphaScreen (present) vs previously reported value [29]): 6 fold; mMC1R partial stimulation (previously reported) (mMC1R [2]; at 100 µM): 50–90%; mMC4R partial stimulation, % activation (previously reported) (mMC4R [11]; at 10 µM): 50%"
,,,,,,,COc1ccccc1-c1nc(=Nc2ccccc2)sn1-c1ccccc1OC [JNJ-10229570],,,,IC50 (MC1R): 200 to 300 nM; IC50 (MC5R): 200 to 300 nM
,,,,,,,NDP-MSH (peptide),,,,"EC50 of agonist activity, AlphaScreen cAMP assay, HEK293 cells stably expressing mMC3R [12]: 0.069 nM; EC50 of agonist activity, AlphaScreen cAMP assay, HEK293 cells stably expressing mMC5R [13]: 0.1 nM; EC50 of agonist activity, AlphaScreen cAMP assay, HEK293 cells stably expressing mMC1R [14]: 0.055 nM"
240 ± 8,6.2,631,290 ± 10,1200 ± 300,A (A (20–50% receptor activation)),270 ± 20,CC(C)CC1CNC(=N)N1CC1CCCN1CC(CC1CCCCC1)N1CC(C(C)O)N(CC2CCC(C(C)(C)C)CC2)C1=N (stereo not shown) [Compound 2718.002],210,5.8,140,"EC50 (mMC1R [2]; β-galactosidase reporter gene assay, read-out: mMC1R agonist EC50 (previously reported)): 300 nM; EC50 (mMC4R [11]; partial agonist, read-out: mMC4R partial agonist EC50 (previously reported)): 270 nM; mMC4R partial agonist efficacy, % MTII signal (previously reported) (mMC4R [11]; relative to MTII): 45%"
